Source: paper PMC4979471 (Cell Death Discovery, 2015)
Where two headings read alike, the source gives them in different places.

Key:
Assay in all cases: Kinase selectivity, P33-radiolabeled assay
Assay type in all cases: biochemical
Details in all cases: 10 μM ATP
CDC7/DBF4 = biological target: T1, CDC7/DBF4 (Homo sapiens, UniProt O00311)
T1 construct: purchased Reaction Biology Corp
Method in brief: (§1)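 Percent residual kinase activity versus DMSO is reported. Conditions: compound at 10 μM, ATP at 10 μM, n = 2.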

JNK1 = biological target: T2, JNK1 (Homo sapiens, UniProt P45983)
T2 construct: purchased Reaction Biology Corp
Method in brief: as §1

FMS = biological target: T3, FMS (Homo sapiens, UniProt P07333)
T3 construct: purchased Reaction Biology Corp
Method in brief: as §1

LYN = biological target: T4, LYN (Homo sapiens, UniProt P07948)
T4 construct: purchased Reaction Biology Corp
Method in brief: as §1

EPHA5 = biological target: T5, EPHA5 (Homo sapiens, UniProt P54756)
T5 construct: purchased Reaction Biology Corp
Method in brief: as §1

SNARK/NUAK2 = biological target: T6, SNARK/NUAK2 (Homo sapiens, UniProt Q9H093)
T6 construct: purchased Reaction Biology Corp
T6 sequence (Q9H093 1-628): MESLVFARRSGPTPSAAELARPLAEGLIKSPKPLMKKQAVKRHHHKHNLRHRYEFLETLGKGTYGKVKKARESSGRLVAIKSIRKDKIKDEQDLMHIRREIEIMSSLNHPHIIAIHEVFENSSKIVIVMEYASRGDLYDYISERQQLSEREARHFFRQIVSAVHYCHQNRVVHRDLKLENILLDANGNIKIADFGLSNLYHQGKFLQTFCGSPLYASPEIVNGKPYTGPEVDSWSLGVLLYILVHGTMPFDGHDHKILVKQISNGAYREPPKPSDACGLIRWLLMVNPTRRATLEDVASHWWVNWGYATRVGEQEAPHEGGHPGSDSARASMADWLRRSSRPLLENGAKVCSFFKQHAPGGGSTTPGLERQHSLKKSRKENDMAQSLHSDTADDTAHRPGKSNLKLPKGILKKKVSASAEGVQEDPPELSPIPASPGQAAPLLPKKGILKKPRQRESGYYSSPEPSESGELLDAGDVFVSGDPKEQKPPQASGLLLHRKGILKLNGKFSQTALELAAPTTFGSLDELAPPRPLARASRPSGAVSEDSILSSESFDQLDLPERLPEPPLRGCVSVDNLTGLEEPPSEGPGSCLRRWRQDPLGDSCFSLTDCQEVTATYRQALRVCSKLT
Method in brief: as §1

P38a/MAPK14 = biological target: T7, P38a/MAPK14 (Homo sapiens, UniProt Q16539)
T7 construct: purchased Reaction Biology Corp
Method in brief: as §1

MYLK3 = biological target: T8, MYLK3 (Homo sapiens, UniProt Q32MK0)
T8 construct: purchased Reaction Biology Corp
T8 sequence (Q32MK0 1-819): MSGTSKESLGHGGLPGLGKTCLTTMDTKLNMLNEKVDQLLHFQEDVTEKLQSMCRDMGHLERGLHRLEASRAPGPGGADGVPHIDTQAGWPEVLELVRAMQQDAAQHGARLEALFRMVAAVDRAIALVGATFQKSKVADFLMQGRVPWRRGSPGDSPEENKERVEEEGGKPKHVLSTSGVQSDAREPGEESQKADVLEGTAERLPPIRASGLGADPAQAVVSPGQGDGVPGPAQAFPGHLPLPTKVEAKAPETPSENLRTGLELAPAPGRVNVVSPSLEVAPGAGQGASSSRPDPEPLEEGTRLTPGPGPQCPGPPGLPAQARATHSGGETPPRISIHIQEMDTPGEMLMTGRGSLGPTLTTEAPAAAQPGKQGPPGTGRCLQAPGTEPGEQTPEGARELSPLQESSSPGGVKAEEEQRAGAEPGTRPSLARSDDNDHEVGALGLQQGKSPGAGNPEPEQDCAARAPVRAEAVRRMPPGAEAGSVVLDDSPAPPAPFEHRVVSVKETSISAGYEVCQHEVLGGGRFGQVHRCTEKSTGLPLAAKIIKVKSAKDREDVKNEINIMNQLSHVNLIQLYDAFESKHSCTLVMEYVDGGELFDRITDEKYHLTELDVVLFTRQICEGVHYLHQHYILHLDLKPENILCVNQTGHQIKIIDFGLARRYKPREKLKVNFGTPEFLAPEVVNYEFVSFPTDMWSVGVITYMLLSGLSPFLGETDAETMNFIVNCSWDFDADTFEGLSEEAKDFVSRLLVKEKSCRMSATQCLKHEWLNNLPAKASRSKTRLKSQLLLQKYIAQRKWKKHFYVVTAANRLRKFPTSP
Method in brief: as §1

TIE2/TEK = biological target: T9, TIE2/TEK (Homo sapiens, UniProt Q02763)
T9 construct: purchased Reaction Biology Corp
Method in brief: as §1

[1] = read-out: % Enzyme Activity (relative to DMSO controls) AVG
[2] = read-out: % Enzyme Activity (relative to DMSO controls) Data 1
[3] = read-out: % Enzyme Activity (relative to DMSO controls) Data 2

T5 sequence (P54756 25-1037): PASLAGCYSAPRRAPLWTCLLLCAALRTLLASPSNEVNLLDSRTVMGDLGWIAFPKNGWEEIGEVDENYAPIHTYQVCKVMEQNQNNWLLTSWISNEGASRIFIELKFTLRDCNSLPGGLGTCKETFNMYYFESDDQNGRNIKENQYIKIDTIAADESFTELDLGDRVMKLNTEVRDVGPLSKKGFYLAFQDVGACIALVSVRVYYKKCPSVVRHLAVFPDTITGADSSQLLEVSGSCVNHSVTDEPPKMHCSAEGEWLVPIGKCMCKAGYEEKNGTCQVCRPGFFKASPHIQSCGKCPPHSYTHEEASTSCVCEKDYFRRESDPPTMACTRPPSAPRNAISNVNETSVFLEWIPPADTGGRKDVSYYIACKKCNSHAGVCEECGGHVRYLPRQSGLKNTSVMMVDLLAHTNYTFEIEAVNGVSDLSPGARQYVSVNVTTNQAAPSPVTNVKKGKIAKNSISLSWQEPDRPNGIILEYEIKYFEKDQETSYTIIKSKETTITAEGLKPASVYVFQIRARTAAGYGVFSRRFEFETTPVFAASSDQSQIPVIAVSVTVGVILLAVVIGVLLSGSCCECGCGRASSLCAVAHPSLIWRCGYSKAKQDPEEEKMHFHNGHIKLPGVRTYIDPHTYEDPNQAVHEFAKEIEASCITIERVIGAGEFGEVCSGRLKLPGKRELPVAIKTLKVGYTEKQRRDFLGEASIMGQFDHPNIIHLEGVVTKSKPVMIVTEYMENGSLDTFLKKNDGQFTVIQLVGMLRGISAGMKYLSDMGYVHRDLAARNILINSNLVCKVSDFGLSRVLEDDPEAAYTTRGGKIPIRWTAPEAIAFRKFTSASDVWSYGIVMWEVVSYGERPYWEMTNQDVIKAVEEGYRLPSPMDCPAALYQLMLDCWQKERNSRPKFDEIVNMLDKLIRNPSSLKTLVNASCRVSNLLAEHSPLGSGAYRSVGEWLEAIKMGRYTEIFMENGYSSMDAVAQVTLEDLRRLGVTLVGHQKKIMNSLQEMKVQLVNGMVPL
T4 sequence (P07948 whole entry): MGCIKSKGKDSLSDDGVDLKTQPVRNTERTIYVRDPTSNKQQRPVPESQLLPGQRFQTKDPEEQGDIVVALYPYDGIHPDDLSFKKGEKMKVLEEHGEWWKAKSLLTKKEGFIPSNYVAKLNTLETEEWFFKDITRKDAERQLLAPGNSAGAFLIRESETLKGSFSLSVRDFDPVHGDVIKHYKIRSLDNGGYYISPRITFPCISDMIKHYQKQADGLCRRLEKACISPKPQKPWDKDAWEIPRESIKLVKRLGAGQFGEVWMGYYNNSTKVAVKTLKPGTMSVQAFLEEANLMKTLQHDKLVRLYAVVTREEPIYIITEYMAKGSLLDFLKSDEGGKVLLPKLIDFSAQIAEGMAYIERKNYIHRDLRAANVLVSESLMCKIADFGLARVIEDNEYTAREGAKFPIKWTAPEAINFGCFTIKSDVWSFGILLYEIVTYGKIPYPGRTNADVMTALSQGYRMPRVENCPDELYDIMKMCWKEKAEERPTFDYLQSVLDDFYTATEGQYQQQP
T9 sequence (Q02763 23-1124): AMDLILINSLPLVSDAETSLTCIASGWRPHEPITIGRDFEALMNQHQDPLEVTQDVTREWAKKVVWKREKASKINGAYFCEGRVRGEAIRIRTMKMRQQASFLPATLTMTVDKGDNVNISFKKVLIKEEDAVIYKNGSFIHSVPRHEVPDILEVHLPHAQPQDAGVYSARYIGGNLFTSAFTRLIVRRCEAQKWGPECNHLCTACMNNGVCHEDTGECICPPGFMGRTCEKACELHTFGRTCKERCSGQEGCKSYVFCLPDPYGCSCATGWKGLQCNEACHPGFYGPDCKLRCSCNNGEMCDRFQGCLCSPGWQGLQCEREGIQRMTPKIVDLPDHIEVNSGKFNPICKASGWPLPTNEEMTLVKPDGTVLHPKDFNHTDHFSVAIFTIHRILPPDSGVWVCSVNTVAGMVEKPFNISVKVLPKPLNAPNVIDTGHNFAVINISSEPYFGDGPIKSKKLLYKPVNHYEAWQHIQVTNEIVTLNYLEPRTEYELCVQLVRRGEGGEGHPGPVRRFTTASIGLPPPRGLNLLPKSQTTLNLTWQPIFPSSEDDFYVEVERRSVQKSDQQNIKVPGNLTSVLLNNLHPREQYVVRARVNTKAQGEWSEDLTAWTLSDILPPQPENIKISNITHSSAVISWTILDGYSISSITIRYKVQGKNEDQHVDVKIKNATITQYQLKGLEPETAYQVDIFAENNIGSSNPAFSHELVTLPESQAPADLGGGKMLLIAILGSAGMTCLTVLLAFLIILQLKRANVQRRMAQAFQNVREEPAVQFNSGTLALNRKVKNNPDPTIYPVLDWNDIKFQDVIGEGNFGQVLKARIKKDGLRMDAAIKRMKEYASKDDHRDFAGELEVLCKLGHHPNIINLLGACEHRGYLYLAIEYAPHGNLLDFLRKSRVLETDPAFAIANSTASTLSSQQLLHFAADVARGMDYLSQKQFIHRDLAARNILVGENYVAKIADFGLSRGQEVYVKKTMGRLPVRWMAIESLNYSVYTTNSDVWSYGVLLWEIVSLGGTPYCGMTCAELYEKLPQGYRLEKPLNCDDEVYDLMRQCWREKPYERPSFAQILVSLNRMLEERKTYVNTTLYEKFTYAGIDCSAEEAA
T7 sequence (Q16539 whole entry): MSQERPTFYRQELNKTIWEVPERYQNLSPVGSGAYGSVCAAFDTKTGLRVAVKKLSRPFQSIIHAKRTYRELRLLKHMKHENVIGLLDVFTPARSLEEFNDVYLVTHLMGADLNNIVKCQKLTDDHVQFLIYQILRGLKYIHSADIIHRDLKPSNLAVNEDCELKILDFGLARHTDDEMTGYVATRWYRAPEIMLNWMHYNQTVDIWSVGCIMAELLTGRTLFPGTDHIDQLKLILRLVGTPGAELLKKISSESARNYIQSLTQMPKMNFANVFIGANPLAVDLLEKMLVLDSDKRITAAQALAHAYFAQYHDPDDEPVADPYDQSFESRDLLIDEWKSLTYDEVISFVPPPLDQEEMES
T3 sequence (P07333 20-972): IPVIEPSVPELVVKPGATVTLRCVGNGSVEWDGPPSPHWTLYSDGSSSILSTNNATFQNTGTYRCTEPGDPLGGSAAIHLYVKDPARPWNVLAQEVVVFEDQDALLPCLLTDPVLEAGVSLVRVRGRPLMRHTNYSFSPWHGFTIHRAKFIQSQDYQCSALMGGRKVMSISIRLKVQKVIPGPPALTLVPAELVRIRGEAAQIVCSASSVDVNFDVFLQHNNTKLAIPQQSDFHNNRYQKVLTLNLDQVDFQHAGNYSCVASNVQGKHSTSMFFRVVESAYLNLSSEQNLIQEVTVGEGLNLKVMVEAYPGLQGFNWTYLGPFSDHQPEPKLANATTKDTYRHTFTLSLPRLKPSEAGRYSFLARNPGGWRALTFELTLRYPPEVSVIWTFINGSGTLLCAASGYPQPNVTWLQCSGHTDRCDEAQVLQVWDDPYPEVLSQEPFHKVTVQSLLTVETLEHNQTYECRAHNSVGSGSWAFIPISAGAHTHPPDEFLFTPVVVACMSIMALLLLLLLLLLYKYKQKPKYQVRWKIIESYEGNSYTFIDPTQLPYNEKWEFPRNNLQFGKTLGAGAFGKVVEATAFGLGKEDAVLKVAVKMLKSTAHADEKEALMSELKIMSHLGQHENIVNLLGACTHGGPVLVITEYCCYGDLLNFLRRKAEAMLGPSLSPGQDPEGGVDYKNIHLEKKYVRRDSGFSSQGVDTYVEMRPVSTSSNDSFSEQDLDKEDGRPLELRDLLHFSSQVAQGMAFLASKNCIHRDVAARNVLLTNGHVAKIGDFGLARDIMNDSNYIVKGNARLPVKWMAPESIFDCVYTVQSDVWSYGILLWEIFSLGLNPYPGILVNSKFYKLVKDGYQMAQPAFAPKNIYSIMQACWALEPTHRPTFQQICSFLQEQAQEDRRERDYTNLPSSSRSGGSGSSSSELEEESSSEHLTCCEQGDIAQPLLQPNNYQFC
T2 sequence (P45983 whole entry): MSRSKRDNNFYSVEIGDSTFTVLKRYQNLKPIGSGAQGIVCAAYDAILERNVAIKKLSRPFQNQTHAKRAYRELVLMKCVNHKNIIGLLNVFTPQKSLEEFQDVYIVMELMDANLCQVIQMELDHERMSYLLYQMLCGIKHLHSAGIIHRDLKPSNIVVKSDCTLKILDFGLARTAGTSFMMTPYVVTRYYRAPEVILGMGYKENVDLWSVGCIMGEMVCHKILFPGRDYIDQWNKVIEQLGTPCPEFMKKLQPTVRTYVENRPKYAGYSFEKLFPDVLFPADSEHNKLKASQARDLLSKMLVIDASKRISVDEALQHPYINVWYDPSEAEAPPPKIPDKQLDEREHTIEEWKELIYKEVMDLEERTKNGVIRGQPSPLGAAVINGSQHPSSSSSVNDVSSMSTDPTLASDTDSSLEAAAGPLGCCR

CC(C)(C)C(=O)N1N=CC[C@H]1c1ccccc1 [GSK′963]
remaining activity at 10 µM (CDC7/DBF4; [1]): 103%
remaining activity at 10 µM (CDC7/DBF4; [2]): 105%
remaining activity at 10 µM (CDC7/DBF4; [3]): 101%
remaining activity at 10 µM (JNK1; [1]): 97.1%
remaining activity at 10 µM (JNK1; [2]): 97.3%
remaining activity at 10 µM (JNK1; [3]): 97%
remaining activity at 10 µM (FMS; [1]): 95%
remaining activity at 10 µM (FMS; [2]): 97.2%
remaining activity at 10 µM (FMS; [3]): 92.8%
remaining activity at 10 µM (LYN; [1]): 107%
remaining activity at 10 µM (LYN; [2]): 109%
remaining activity at 10 µM (LYN; [3]): 105%
remaining activity at 10 µM (EPHA5; [1]): 107%
remaining activity at 10 µM (EPHA5; [2]): 105%
remaining activity at 10 µM (EPHA5; [3]): 108%
remaining activity at 10 µM (SNARK/NUAK2; [1]): 99.1%
remaining activity at 10 µM (SNARK/NUAK2; [2]): 99.2%
remaining activity at 10 µM (SNARK/NUAK2; [3]): 99%
remaining activity at 10 µM (P38a/MAPK14; [1]): 94%
remaining activity at 10 µM (P38a/MAPK14; [2]): 92.9%
remaining activity at 10 µM (P38a/MAPK14; [3]): 95.2%
remaining activity at 10 µM (MYLK3; [1]): 102%
remaining activity at 10 µM (MYLK3; [2]): 99.7%
remaining activity at 10 µM (MYLK3; [3]): 105%
remaining activity at 10 µM (TIE2/TEK; [1]): 98.1%
remaining activity at 10 µM (TIE2/TEK; [2]): 95.5%
remaining activity at 10 µM (TIE2/TEK; [3]): 101%
